Data on 31 molecules can be found in ChEMBL document CHEMBL1125761, “Synthesis of water-soluble (aminoalkyl)camptothecin analogues: inhibition of topoisomerase I and antitumor activity” (J Med Chem, 1991).

Assay [1] deals with L1210. The experiment in a line: Inhibitory activity […] bearing L1210 leukemia. It counts as functional, cell-based, Mus musculus.
The species named for assay [2] is Mus musculus. Put plainly: Effect in increasing life span of mice bearing L1210 leukemia. It counts as functional.
The species named for assay [3] is Mus musculus. Put plainly: Maximally tolerated dose in mice bearing L1210 leukemia. It counts as functional.
The species named for assay [4] is Mus musculus. Put plainly: Compound tested for maximally tolerated dose in mice bearing L1210 leukemia; No toxicity was observed. In kind it is functional.

A value given as a limit tells only on which side of the number the result lay.

The IC50 is the concentration at which inhibition is half-maximal. High values mean lower potency, low ones higher potency. By ILS is commonly meant the gain in survival time of treated over control animals, in per cent. A high value points to a large benefit in survival. On to `CC[C@@]1(O)C(=O)OCc2c1cc1n(c2=O)Cc2cc3c(CN(C)c4ccccc4)c(O)ccc3nc2-1`, for which half-maximal inhibition in assay [1] (Mus musculus, L1210) (IC50) was put at 69 nM. Moreover, the ILS in assay [2] came to 138%. In assay [3], this molecule displayed an MTD of 83 µM/kg.

As for `CC[C@@]1(O)C(=O)OCc2c1cc1n(c2=O)Cc2cc3c(C=O)c(O)ccc3nc2-1`, the MTD in assay [4] is 102 µM/kg. This molecule registered an IC50 in assay [1] (Mus musculus, L1210) of 260 nM. Further, the ILS in assay [2] is given as >75%.

`CCOCc1c(O)ccc2nc3c(cc12)Cn1c-3cc2c(c1=O)COC(=O)[C@]2(O)CC` showed an IC50 in assay [1] (Mus musculus, L1210) of 48 nM. This molecule also came in with an ILS in assay [2] of 125%. This molecule also gave an MTD in assay [3] of 56 µM/kg.

On to `CC[C@@]1(O)C(=O)OCc2c1cc1n(c2=O)Cc2cc3c(CN(C)C)cccc3nc2-1`, for which the IC50 in assay [1] (Mus musculus, L1210) was determined as 65 nM. This molecule also returned an ILS in assay [2] of 88%. The MTD in assay [3] was 29 µM/kg.

For the molecule `CC[C@@]1(O)C(=O)OCc2c1cc1n(c2=O)Cc2cc3c(CC#N)c(O)ccc3nc2-1`, in assay [1] (Mus musculus, L1210), the IC50 turned out to be 400 nM. Further, in assay [2], the ILS was >200%. The molecule further came in with an MTD in assay [3] of 28 µM/kg.

In assay [1] (Mus musculus, L1210), `CCC1(O)C(=O)OCc2c1cc1n(c2=O)Cc2c-1nc1ccccc1c2CCN(C)C(=O)OCc1ccccc1` (stereo not drawn) gave an IC50 of 62 nM. In addition, the ILS in assay [2] is 62%. Further, in assay [3], the MTD came to 128 µM/kg.

Regarding `CC[C@@]1(O)C(=O)OCc2c1cc1n(c2=O)Cc2cc3c(COCCN(C)C)c(O)ccc3nc2-1`, in assay [1] (Mus musculus, L1210), the IC50 turned out to be 180 nM. Besides, the ILS in assay [2] was found to be 188%. This molecule also had an MTD in assay [3] of 50 µM/kg.

The molecule `CCC1(O)C(=O)OCc2c1cc1n(c2=O)Cc2c-1nc1ccc(CC#N)cc1c2C` (stereo not drawn) yielded an IC50 in assay [1] (Mus musculus, L1210) of 7.5 nM. For the same molecule, in assay [2], the ILS is on record as 106%. Besides, the MTD in assay [3] stood at 6.4 µM/kg.

As to `CC[C@@]1(O)C(=O)OCc2c1cc1n(c2=O)Cc2cc3c(CCN)c(O)ccc3nc2-1`, half-maximal inhibition in assay [1] (Mus musculus, L1210) (IC50) required 360 nM. Moreover, the ILS in assay [2] is listed as 75%. The MTD in assay [3] stood at 210 µM/kg.

`CC[C@@]1(O)C(=O)OCc2c1cc1n(c2=O)Cc2cc3cc(C#N)ccc3nc2-1` showed an IC50 in assay [1] (Mus musculus, L1210) of 80 nM. This molecule yielded an ILS in assay [2] of 100%. In assay [3], this molecule displayed an MTD of 7.8 µM/kg.

In assay [1] (Mus musculus, L1210), `CC[C@@]1(O)C(=O)OCc2c1cc1n(c2=O)Cc2cc3c(C)cccc3nc2-1` registered an IC50 of 70 nM. In addition, the ILS in assay [2] is >200%. The molecule also had an MTD in assay [3] of 15 µM/kg.

In assay [1] (Mus musculus, L1210), `CC[C@@]1(O)C(=O)OCc2c1cc1n(c2=O)Cc2cc3c(C[N+](C)(C)C)c(O)ccc3nc2-1` displayed an IC50 of 150 nM. Moreover, the ILS in assay [2] is >200%. Besides, in assay [3], the MTD is 68 µM/kg.

On to `CC[C@@]1(O)C(=O)OCc2c1cc1n(c2=O)Cc2cc3cc(P(=O)(O)O)ccc3nc2-1`, for which, in assay [4], the MTD was 155 µM/kg. Moreover, the IC50 in assay [1] (Mus musculus, L1210) is 26000 nM.

`CC[C@@]1(O)C(=O)OCc2c1cc1n(c2=O)Cc2cc3c(CNCCN(C)C)c(O)ccc3nc2-1`: the MTD in assay [4] is 78 µM/kg. Moreover, the IC50 in assay [1] (Mus musculus, L1210) came to 49 nM. Moreover, the ILS in assay [2] is on record as >94%.

`CC[C@@]1(O)C(=O)OCc2c1cc1n(c2=O)Cc2cc3cc(CN)ccc3nc2-1`: half-maximal inhibition in assay [1] (Mus musculus, L1210) (IC50) was put at 90 nM. Also, the ILS in assay [2] came to 112%. Also, the MTD in assay [3] was found to be 160 µM/kg.

Take `CC[C@@]1(O)C(=O)OCc2c1cc1n(c2=O)Cc2cc3c(CSCCN(C)C)c(O)ccc3nc2-1`: the MTD in assay [4] turned out to be 76 µM/kg. In assay [1] (Mus musculus, L1210), the IC50 came out at 12 nM. Also, the ILS in assay [2] is listed as >112%.

In the case of `CC[C@@]1(O)C(=O)OCc2c1cc1n(c2=O)Cc2cc3c(CN4CCOCC4)c(O)ccc3nc2-1`, in assay [1] (Mus musculus, L1210), the IC50 was 370 nM. Besides, the ILS in assay [2] was 83%. Also, the MTD in assay [3] is 190 µM/kg.

On to `CCC1(O)C(=O)OCc2c1cc1n(c2=O)Cc2c-1nc1ccc(CCN)cc1c2C` (stereo not drawn), for which inhibition in assay [1] (Mus musculus, L1210) was half-maximal at 29 nM (IC50). Further, the ILS in assay [2] is given as >33%. Besides, the MTD in assay [3] was found to be 68 µM/kg.

Take `CC[C@@]1(O)C(=O)OCc2c1cc1n(c2=O)Cc2cc3c(CNC4CC4)c(O)ccc3nc2-1`: the IC50 in assay [1] (Mus musculus, L1210) came out at 130 nM. This molecule displayed an ILS in assay [2] of 131%. In assay [3], this molecule had an MTD of 48 µM/kg.

In turn, `CC[C@@]1(O)C(=O)OCc2c1cc1n(c2=O)Cc2cc3c(CN4CCOCC4)cccc3nc2-1` registered an IC50 in assay [1] (Mus musculus, L1210) of 690 nM. The molecule also had an ILS in assay [2] of 144%. The MTD in assay [3] turned out to be 29 µM/kg.

For the molecule `CCC1(O)C(=O)OCc2c1cc1n(c2=O)Cc2c-1nc1ccccc1c2CCNC` (stereo not drawn), in assay [1] (Mus musculus, L1210), the IC50 was 44 nM. The increase in lifespan (ILS) in assay [2] amounted to 43%. In addition, in assay [3], the MTD is 122 µM/kg.

In turn, `CC[C@@]1(O)C(=O)OCc2c1cc1n(c2=O)Cc2cc3c(CN4CCN(C)CC4)c(O)ccc3nc2-1` yielded an MTD in assay [4] of 74 µM/kg. Moreover, in assay [1] (Mus musculus, L1210), the IC50 came out at 72 nM. In addition, in assay [2], the ILS was >200%.

With `CC[C@@]1(O)C(=O)OCc2c1cc1n(c2=O)Cc2cc3c(CNC4CCCCC4)c(O)ccc3nc2-1`, the midpoint of inhibition in assay [1] (Mus musculus, L1210), the IC50, lay at 56 nM. Also, the ILS in assay [2] is >200%. The MTD in assay [3] amounted to 47 µM/kg.

In assay [4], `CC[C@@]1(O)C(=O)OCc2c1cc1n(c2=O)Cc2cc3c(CN4CCC(N5CCCCC5)CC4)c(O)ccc3nc2-1` came in with an MTD of 77 µM/kg. The midpoint of inhibition in assay [1] (Mus musculus, L1210), the IC50, lay at 270 nM. In assay [2], the ILS was >44%.

Take `CC[C@@]1(O)C(=O)OCc2c1cc1n(c2=O)Cc2cc3c(CNCCO)c(O)ccc3nc2-1`: the IC50 in assay [1] (Mus musculus, L1210) turned out to be 250 nM. The ILS in assay [2] is reported as 62%. Also, the MTD in assay [3] came to 82 µM/kg.

`CCc1c2c(nc3ccc(O)cc13)-c1cc3c(c(=O)n1C2)COC(=O)[C@]3(O)CC` [7-ETHYL-10-HYDROXYCAMPTOTHECIN] displayed an increase in life span (ILS) in assay [2] of 144%. The molecule also had an MTD in assay [3] of 86 µM/kg.

As to `CC[C@@]1(O)C(=O)OCc2c1cc1n(c2=O)Cc2cc3c(N)cccc3nc2-1` [9-AMINOCAMPTOTHECIN], the IC50 in assay [1] (Mus musculus, L1210) was found to be 12 nM. For the same molecule, the ILS in assay [2] was determined as 94%. The MTD in assay [3] turned out to be 8.9 µM/kg.

For `CC[C@@]1(O)C(=O)OCc2c1cc1n(c2=O)Cc2cc3ccccc3nc2-1` [CAMPTOTHECIN], in assay [1] (Mus musculus, L1210), inhibition was half-maximal at 23 nM (IC50). This molecule also displayed an ILS in assay [2] of 118%. For the same molecule, the MTD in assay [3] was determined as 22 µM/kg.

Regarding `CC[C@@]1(O)C(=O)OCc2c1cc1n(c2=O)Cc2cc3cc(O)ccc3nc2-1` [HYDROXYCAMPTOTHECIN], in assay [1] (l1210), the IC50 was determined as 18 nM. In assay [2], this molecule displayed an ILS of 78%. The MTD in assay [3] stood at 21 µM/kg.

In assay [3], `CCc1c2c(nc3ccc(OC(=O)N4CCC(N5CCCCC5)CC4)cc13)-c1cc3c(c(=O)n1C2)COC(=O)[C@]3(O)CC` [IRINOTECAN] returned an MTD of 245 µM/kg.

`CC[C@@]1(O)C(=O)OCc2c1cc1n(c2=O)Cc2cc3c(CN(C)C)c(O)ccc3nc2-1` [TOPOTECAN] showed an ILS in assay [2] of 173%. Also, the MTD in assay [3] turned out to be 30 µM/kg.
